The record followed here is patent publication US6403600B1, “Methoximinophenylacetic acid amides” (Bayer Aktiengesellschaft, priority 1998, dated 2002).

The nature of this series: logP determination by HPLC (EEC-Directive 79/831 Annex V. A8). Type of series: physicochemical. The conditions noted are these: gradient method, acetonitrile/0.1% aqueous phosphoric acid.
As usually defined, the chromatographic logP is a lipophilicity value derived from retention on a column. Lower therefore signals lower lipophilicity. `CON=C(C(=O)N(C)SC(=O)OC)c1ccccc1COc1ccccc1C` [Example 1, 2-methoximino-2-[2-(methylphenoxy)-methylphenyl]-N-methyl-N-methoxycarbonylthio-acetamide]: the chromatographic logP came out at 4.25. Regarding `CON=C(C(=O)N(C)SC(F)(Cl)Cl)c1ccccc1Oc1ncnc(Oc2ccccc2Br)c1F` [Example 2, 2-{2-[6-(2-bromo-phenoxy)-5-fluoro-pyrimidin-4-yloxy]-phenyl}-N-(dichlorofluoro-methyl-sulphanyl)-2-methoxyimino-N-methylacetamide], the chromatographic logP is 5.1.

The logP is a log measure of how a compound divides between an organic and an aqueous phase. Read a high logP as a more lipophilic compound. `CON=C(C(=O)N(C)SC(F)(Cl)Cl)c1ccccc1Oc1ncnc(Oc2ccccc2Cl)c1F` [Example 3] showed a lipophilicity (logP) of 5.05. Same read-out and setting: the figure for `CON=C(C(=O)NC#N)c1ccccc1COc1ccccc1C` [Example 4] is 3.34; for `CON=C(C(=O)N(C)SC(F)(Cl)Cl)c1ccccc1COc1ccccc1C` [Example 5] it is 5.35. Take `CON=C(C(=O)N(C)SC(Cl)(Cl)Cl)c1ccccc1COc1ccccc1C` [Example 6]: the logP is 5.56.

`CON=C(C(=O)N(C)Sc1ccc(F)cc1)c1ccccc1COc1ccccc1C` [Example 7]: the logP is 5.11. The same measure, in the same setting: in the case of `CON=C(C(=O)N(C)SN(C)C(=O)OC)c1ccccc1COc1ccccc1C` [Example 8] it was 4.24; in that of `CCCCN(CCCC)SN(C)C(=O)C(=NOC)c1ccccc1COc1ccccc1C` [Example 9], 6.83; in that of `CON=C(C(=O)N(C)C#N)c1ccccc1COc1ccccc1C` [Example 10], 3.67. Molecule `CON=C(C(=O)N(C)Sc1ccc(OC)cc1)c1ccccc1COc1ccccc1C` [Example 11] displayed a logP of 4.98.

Regarding `CCOC(=O)N(C)C(=O)C(=NOC)c1ccccc1COc1ccccc1C` [Example 12], the logP was determined as 4.46.

Regarding `CON=C(C(=O)N(C)Sc1ccc(C(=O)OC)cc1)c1ccccc1COc1ccccc1C` [Example 13], the logP is listed as 4.89. In turn, `CON=C(C(=O)N(C)C(=O)OCC(C)C)c1ccccc1COc1ccccc1C` [Example 14] displayed a logP of 5.21. On to `CCCCOP(=O)(OC)N(C)C(=O)C(=NOC)c1ccccc1COc1ccccc1C` (stereo not shown) [Example 15], for which the logP is on record as 4.53. The molecule `CON=C(C(=O)N(C)C(=O)N(C)SC(F)(Cl)Cl)c1ccccc1COc1ccccc1C` [Example 16] registered a logP of 5.08. `CON=C(C(=O)N(C)C(=O)N(C)C)c1ccccc1COc1ccccc1C` [Example 17]: the logP amounted to 3.38. As for `CON=C(C(=O)N(C)S(C)(=O)=O)c1ccccc1COc1ccccc1C` [Example 18], the logP is 3.82. Turning to `CCOCN(C)C(=O)C(=NOC)c1ccccc1COc1ccccc1C` [Example 19], the logP is 4.02. As for `CON=C(C(=O)N(C)Sc1ccc(Cl)cc1)c1ccccc1COc1ccccc1C` [Example 20], the logP is recorded as 5.53. As for `CON=C(C(=O)N(C)Sc1ccccc1)c1ccccc1COc1ccccc1C` [Example 21], the logP was found to be 5.11. On the same count and under the same terms, in the case of `CON=C(C(=O)N(C)Sc1cccc(C(F)(F)F)c1)c1ccccc1COc1ccccc1C` [Example 22] it was 5.5; in that of `CON=C(C(=O)N(C)Sc1ccc(OC(F)(F)F)c(Cl)c1)c1ccccc1COc1ccccc1C` [Example 23], 5.99. Consider `CON=C(C(=O)N(C)Sc1ccc(C)cc1)c1ccccc1COc1ccccc1C` [Example 24], for which the logP was 5.45. As to `CON=C(C(=O)N(C)Sc1ccc(Cl)c(C(F)(F)F)c1)c1ccccc1COc1ccccc1C` [Example 25], the log partition coefficient (logP) came to 5.8.

On to `CON=C(C(=O)N(C)C(=O)C(=O)OC)c1ccccc1COc1ccccc1C` [Example 26], for which the logP is listed as 3.96. `CCSC(=O)N(C)C(=O)C(=NOC)c1ccccc1COc1ccccc1C` [Example 27] gave a logP of 4.91. With `CON=C(C(=O)NSC(F)(Cl)Cl)c1ccccc1COc1ccccc1C` [Example 28], the logP worked out at 4.32. The molecule `CCOC(=O)N(C(=O)OCC)C(=O)C(=NOC)c1ccccc1COc1ccccc1C` [Example 29] displayed a logP of 4.42. Take `CCOC(=O)N(SC(F)(Cl)Cl)C(=O)C(=NOC)c1ccccc1COc1ccccc1C` [Example 30]: the logP is 5.35. Turning to `CNC(=O)N(C)C(=O)C(=NOC)c1ccccc1COc1ccccc1C` [Example 31], the log partition coefficient (logP) is on record as 3.29.

In turn, `CON=C(C(=O)N(C)SC(F)(Cl)Cl)c1ccccc1CON=C(C)c1cccc(C(F)(F)F)c1` [Example 32] gave a logP of 5.74. `CON=C(C(=O)N(C)C(=O)OC)c1ccccc1COc1ccccc1C` [Example 33]: the log partition coefficient (logP) was determined as 4.11. The molecule `CON=C(C(=O)N(C)C(=O)N(SC(F)(Cl)Cl)c1ccc(Cl)cc1)c1ccccc1COc1ccccc1C` [Example 34] returned a logP of 6.21.

In turn, `CCS(=O)(=O)N(C)C(=O)N(C)C(=O)C(=NOC)c1ccccc1COc1ccccc1C` [Example 35] had a logP of 4.05. For `CON=C(C(=O)N(C)C(=O)N1CCOCC1)c1ccccc1COc1ccccc1C` [Example 36], the logP is listed as 3.32. Regarding `CON=C(C(=O)N(C)C(=O)OCCBr)c1ccccc1COc1ccccc1C` [Example 37], the lipophilicity (logP) is reported as 4.6.

In the case of `CCOC(=O)N(C)C(=O)C(=NOC)c1ccccc1CON=C(C)c1cccc(C(F)(F)F)c1` [Example 38], the logP worked out at 4.91. With `CCOCN(C)C(=O)C(=NOC)c1ccccc1CON=C(C)c1cccc(C(F)(F)F)c1` [Example 39], the logP is recorded as 4.58. As to `CON=C(C(=O)N(C)SC(=O)OC)c1ccccc1CON=C(C)c1cccc(C(F)(F)F)c1` [Example 40], the logP came to 4.75. In turn, `CCOC(=O)N(C)C(=O)C(=NOC)c1ccccc1Oc1ccccc1` [Example 41] returned a logP of 3.59. The same measure, in the same setting: the figure for `CCOCN(C)C(=O)C(=NOC)c1ccccc1Oc1ccccc1` [Example 42] is 3.36. As to `CON=C(C(=O)N(C)SC(=O)OC)c1ccccc1Oc1ccccc1` [Example 43], the logP amounted to 3.59. Consider `CON=C(C(=O)N(C)SC(F)(Cl)Cl)c1ccccc1Oc1ccc(OC(F)(F)F)cc1Cl` [Example 44], for which the logP is 5.87. Molecule `CON=C(C(=O)N(C)SN(C)C(=O)C(=NOC)c1ccccc1COc1ccccc1C)c1ccccc1COc1ccccc1C` [Example 45] had a chromatographic logP of 6.1. `CON=C(C(=O)N(C)SC(F)(Cl)Cl)c1ccccc1Oc1ccccc1` [Example 47] gave a logP of 4.75. Take `CON=C(C(=O)N(C)Sc1ccc(OC)cc1)c1ccccc1Oc1ccccc1` [Example 48]: the lipophilicity (logP) was 4.31. The molecule `CON=C(C(=O)N(C)C(=O)N(C)SC(F)(Cl)Cl)c1ccccc1Oc1ccccc1` [Example 49] returned a lipophilicity (logP) of 4.53. In turn, `CON=C(C(=O)N(C)SC(F)(F)F)c1ccccc1Oc1ccccc1` [Example 50] displayed a logP of 4.38. As to `CON=C(C(=O)N(SC(F)(Cl)Cl)SC(F)(Cl)Cl)c1ccccc1COc1ccccc1C` [Example 51], the logP is reported as 6.61. `CCSN(C)C(=O)C(=NOC)c1ccccc1COc1ccccc1C` [Example 52] displayed a logP of 4.55. Molecule `CCN(SC(F)(Cl)Cl)C(=O)C(=NOC)c1ccccc1COc1ccccc1C` [Example 53] showed a log partition coefficient (logP) of 5.74. `CON=C(C(=O)N(C)SC)c1ccccc1COc1ccccc1C` [Example 54] had a lipophilicity (logP) of 4.22. `CON=C(C(=O)N(C)SC(C)(C)C)c1ccccc1COc1ccccc1C` [Example 55] yielded a logP of 5.05. For `CON=C(C(=O)N(C)SC(F)(F)F)c1ccccc1COc1ccccc1C` [Example 56], the lipophilicity (logP) worked out at 4.93.

`CON=C(C(=O)N(C)SC(C)(F)F)c1ccccc1COc1ccccc1C` [Example 57] yielded a logP of 4.62.

Take `CCSCc1ccccc1OCc1ccccc1C(=NOC)C(=O)N(C)SC(F)(Cl)Cl` [Example 58]: the lipophilicity (logP) came to 5.59. `CON=C(C(=O)N(C)C(=O)N(C)SC(F)(F)F)c1ccccc1COc1ccccc1C` [Example 59] displayed a log partition coefficient (logP) of 4.75. For `CON=C(C(=O)N(SC(F)(Cl)Cl)C1CC1)c1ccccc1COc1ccccc1C` [Example 60], the log partition coefficient (logP) was 5.58. The same measure, in the same setting: the figure for `CON=C(C(=O)N(SC(F)(F)F)C1CC1)c1ccccc1COc1ccccc1C` [Example 61] is 5.17; for `CCN(SC(F)(F)F)C(=O)C(=NOC)c1ccccc1COc1ccccc1C` [Example 62] it is 5.3. `CON=C(C(=O)N(C)SC(F)(Cl)Cl)c1ccccc1COc1cccc(-c2ccccc2)c1` [Example 65] yielded a logP of 5.77. Still for that read-out and setting: in the case of `CON=C(C(=O)N(C)SC(F)(F)F)c1ccccc1COc1cccc(-c2ccccc2)c1` [Example 66] it was 5.36; in that of `CON=C(C(=O)N(C)SC(F)(Cl)Cl)c1ccccc1COc1cc(C)ccc1C` [Example 67], 5.68; in that of `CON=C(C(=O)N(C)SC(F)(F)F)c1ccccc1COc1cc(C)ccc1C` [Example 68], 5.25. With `CON=C(C(=O)N(C)SC(F)(Cl)Cl)c1ccccc1COc1cc(F)ccc1F` [Example 69], the logP amounted to 4.86.

As to `CON=C(C(=O)N(C)SC(F)(F)F)c1ccccc1COc1cc(F)ccc1F` [Example 70], the logP came out at 4.48. `CON=C(C(=O)N(C)SC)c1ccccc1CON=C(C)c1cccc(C(F)(F)F)c1` [Example 71] returned a logP of 4.73. For the molecule `CON=C(C(=O)N(C)Sc1ccccc1)c1ccccc1CON=C(C)c1cccc(C(F)(F)F)c1` [Example 72], the logP was found to be 5.48.

As for `CCSN(C)C(=O)C(=NOC)c1ccccc1CON=C(C)c1cccc(C(F)(F)F)c1` [Example 73], the log partition coefficient (logP) turned out to be 5.02. Molecule `CON=C(C(=O)N(C)Sc1cccc(C(F)(F)F)c1)c1ccccc1CON=C(C)c1cccc(C(F)(F)F)c1` [Example 74] came in with a logP of 5.84. Turning to `CON=C(C(=O)N(C)SC(F)(F)F)c1ccccc1CON=C(C)c1cccc(C(F)(F)F)c1` [Example 75], the logP is recorded as 5.36. For `CON=C(C(=O)N(C)C(=O)N(C)SC(F)(F)F)c1ccccc1CON=C(C)c1cccc(C(F)(F)F)c1` [Example 76], the lipophilicity (logP) is listed as 5.22.
